# Laboratory results taken from patent US20220162537A1, “FLUID SYSTEM FOR PRODUCING EXTRACELLULAR VESICLES COMPRISING A THERAPEUTIC OR IMAGING AGENT AND METHOD THEREOF” (CENTRE NATIONAL DE LA RECHERCHE SCIENTIFIQUE, priority 2018, published 2022).
# Test system: HT29 tumors
# Assay: HT29 tumor growth retardation after photodynamic therapy (Kaplan-Meier)
# Assay type: in vivo, mice
# Conditions: photodynamic therapy with laser activation
# From the text: FIG. 8 illustrates Kaplan-Meier diagrams of HT29 tumor growth retardation after treatment with free mTHPC; the liposomal formulation of mTHPC (mTHPC Liposome) and mTHPC vesicles with laser activation of the drug (photodynamic therapy), compared to the same groups without laser activation (control, dotted lines).
# FIG. 8 illustrates Kaplan-Meier diagrams of tumor growth retardation HT29 after treatment with free mTHPC; the liposomal formulation of mTHPC and mTHPC-EVs with laser activation of the drug (photodynamic therapy, three-dimensional therapies), compared to the same groups without laser activation (control, dotted lines). The inventors have compared the therapeutic effect of EVs mTHPC, the liposomal formulation of mTHPC and free mTHPC in terms of tumor growth, 90 days after treatment. […] Thus, compared to the liposomes, the charged vesicles of active agents obtained according to the methods of the present invention can constitute a very advantageous alternative both of the point of view of the pharmacodynamics properties and the effectiveness of the treatment carried out. The liposomes are known for the vectorization of various biomolecules such as enzymes, hormones, antisense oligonucleotides, ribozymes, proteins or DNA peptides, cancer molecules (Farjadian et al 2018). […]
compound,measurement,value
"Oc1cccc(-c2c3nc(c(-c4cccc(O)c4)c4ccc([nH]4)c(-c4cccc(O)c4)c4nc(c(-c5cccc(O)c5)c5ccc2[nH]5)CC4)C=C3)c1 [mTHPC, meta-tetra (hydroxyphenyl) chlorin]",percentage of tumors (growth 10 times higher criterion) at day 90,20%
